For one compound, GI50 and TGI results are on record in PubChem BioAssay (NCI).

Some test systems named below: UACC-257 melanoma; U251 CNS; M14 melanoma; A549 NSCLC; MOLT-4 leukemia; NCI-H23 lung; SN12C renal; ACHN renal; COLO 205 colon; SW-620 colon.
Common to all, as to assay: DTP human tumour cell line panel, 48 h

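Grown in 96-well plates, cells were treated for 48 hours with each compound at five concentrations. Insufficient inhibition: endpoint recorded as highest concentration tested. Abbreviation: GI50, concentration required for 50% inhibition of growth. TGI: concentration producing complete growth inhibition.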

The term GI50 denotes the concentration at which growth is held to half of that of the control. In general, TGI refers to the concentration at which net growth stops. Low values mean greater sensitivity of the cells, high ones lower sensitivity of the cells. On to `COc1ccc(/C(C)=C(\c2ccc(OCCN3CCCCCC3)cc2)c2ccc(OC(=O)C3CCCCC3)cc2)cc1`, for which the GI50 in the assay with UACC-257 melanoma was 0.575 µM; with U251 CNS, 1.01 µM; in the assay on M14 melanoma it was 0.416 µM; in the assay on A549 NSCLC, 1.12 µM; with MOLT-4 leukemia, 0.497 µM; with NCI-H23 lung it was 1.29 µM. The GI50 was 1.11 µM in the assay with SN12C renal, 1.73 µM in the assay on ACHN renal, 0.626 µM in the assay with COLO 205 colon and 0.948 µM with SW-620 colon. In addition, the TGI was 2.07 µM with UACC-257 melanoma; 3.62 µM in the assay on U251 CNS; 1.3 µM in the assay with M14 melanoma; 4.04 µM in the assay with A549 NSCLC; 2.54 µM with MOLT-4 leukemia; 4.32 µM in the assay on NCI-H23 lung. For the same compound, the TGI in the assay on SN12C renal came to 3.28 µM; in the assay with ACHN renal, 3.56 µM; with COLO 205 colon it was 4.06 µM; in the assay on SW-620 colon, 3.15 µM.
